Some test systems named below: A549; HCT-15; HT-29; IGROV-1; K562; KM12; MCF7; MOLT-4; NCI-H522; NCI/ADR-RES; SF-295; SK-MEL-5; SNB-75; T47D; TK-10; UO-31; SK-OV-3; SN12C; SNB-19.
What all share (assay): NCI tumour cell line growth inhibition, 48 h

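Where inhibition never reached the appropriate level, the endpoint shown equals the highest concentration tested. Otherwise, values were interpolated linearly from a five-concentration, 48-hour dose response in 96-well plates. GI50 is the concentration that inhibits growth by half.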 The source made the active and inactive calls. No stated cut-off is given here; in the data, active = GI50 up to about 1.1 µM and inactive = higher.

Regarding `C=CC(c1ccccc1)C1(O)c2cccc(O)c2C(=O)c2c(O)cccc21` (configuration not stated), the GI50 was 14.7 µM (inactive) with A549; 10.8 µM with HCT-15; 11.5 µM (inactive) in the assay with HT-29; 14.9 µM (inactive) in the assay with IGROV-1; 6.64 µM (inactive) in the assay with K562; 12.8 µM (inactive) in the assay on KM12. Also, the GI50 in the assay on MCF7 is 17.1 µM (inactive); in the assay with MOLT-4 it was 11.9 µM (inactive); in the assay with NCI-H522, 11.7 µM (inactive); in the assay on NCI/ADR-RES, 11.5 µM (inactive); in the assay with SF-295, 14.9 µM (inactive); with SK-MEL-5 it was 17.3 µM (inactive). For the same molecule, the GI50 with SNB-75 is 20.5 µM (inactive); with T47D it was 16.9 µM (inactive); in the assay with TK-10, 19.2 µM (inactive); with UO-31, 19.8 µM (inactive).
On to `CC(=O)N[C@@H](Cc1ccc(O)cn1)C(=O)NCc1ccc(Cl)cc1`, for which the GI50 was > 100 µM (inactive) with A549; more than 100 µM in the assay on HCT-15; > 100 µM (inactive) with HT-29; > 100 µM (inactive) in the assay on IGROV-1; > 100 µM (inactive) with K562; > 100 µM (inactive) in the assay with KM12. Besides, the GI50 in the assay on MCF7, with MOLT-4, with NCI-H522, in the assay on NCI/ADR-RES, in the assay on SF-295 and with SK-MEL-5 was > 100 µM (inactive) in each case. Further, the GI50 in the assay with SK-OV-3 was > 100 µM (inactive); with SN12C, > 100 µM (inactive); with SNB-19, > 100 µM (inactive); with T47D, 94 µM (inactive); with TK-10, > 100 µM (inactive); in the assay with UO-31 it was > 100 µM (inactive).
In the case of `O=c1[nH]nc(Nc2ccccc2)c2nnn(Cc3ccccc3)c12`, the GI50 in the assay with A549 is > 100 µM (inactive); in the assay on HCT-15, more than 100 µM; in the assay with HT-29, > 100 µM (inactive); with IGROV-1, > 100 µM (inactive); in the assay on K562 it was > 100 µM (inactive); with KM12, > 100 µM (inactive). Further, the GI50 in the assay on MCF7 is > 100 µM (inactive); in the assay with MOLT-4, > 100 µM (inactive); with NCI-H522 it was > 100 µM (inactive); in the assay with NCI/ADR-RES, 50.8 µM (inactive); with SF-295, 86.9 µM (inactive); in the assay on SK-MEL-5, > 100 µM (inactive). Besides, the GI50 in the assay with SN12C was > 100 µM (inactive); with SNB-19, 74 µM (inactive); in the assay on SNB-75, 18.7 µM (inactive); with T47D, > 100 µM (inactive); in the assay on TK-10, > 100 µM (inactive); with UO-31, > 100 µM (inactive).
Take `CCN1C2=NCCN2S(=O)(=O)c2ccccc21`: the GI50 with A549 is > 100 µM (inactive); with HCT-15, more than 100 µM; in the assay on HT-29 it was > 100 µM (inactive); with IGROV-1, > 100 µM (inactive); in the assay with K562, > 100 µM (inactive); with KM12 it was > 100 µM (inactive). For the same molecule, the GI50 in the assay on MCF7 was > 100 µM (inactive); with MOLT-4, > 100 µM (inactive); in the assay with NCI-H522 it was 59 µM (inactive); in the assay with NCI/ADR-RES, > 100 µM (inactive); in the assay on SF-295 it was > 100 µM (inactive); in the assay with SK-MEL-5, > 100 µM (inactive). For the same molecule, the GI50 in the assay on SK-OV-3, in the assay on SN12C, in the assay with SNB-19, in the assay on T47D, in the assay with TK-10 and with UO-31 was > 100 µM (inactive) each time.
As to `CCSCC(N)C(=O)O` (configuration not stated), the GI50 with A549 is > 100 µM (inactive); in the assay with HCT-15, more than 100 µM; in the assay on HT-29, > 100 µM (inactive); in the assay with IGROV-1, > 100 µM (inactive); with KM12, > 100 µM (inactive); with MCF7 it was > 100 µM (inactive). The GI50 with NCI-H522, in the assay with NCI/ADR-RES, in the assay with SF-295, in the assay on SK-MEL-5, in the assay on SK-OV-3 and in the assay with SN12C was > 100 µM (inactive) each time. Besides, the GI50 with SNB-19, with SNB-75, in the assay on T47D, in the assay with TK-10 and in the assay on UO-31 was > 100 µM (inactive) throughout.
As to `CCCCCCCCCCCCCCCC(=O)OC(COC(C)=O)CO[PH](=O)O` (configuration not stated), the GI50 in the assay on A549 was 19.5 µM (inactive); with HCT-15, 24 µM; in the assay with IGROV-1 it was 22.3 µM (inactive); in the assay on K562 it was > 100 µM (inactive); in the assay with KM12, 18.3 µM (inactive); with MCF7, > 100 µM (inactive). Moreover, the GI50 was 31.3 µM (inactive) with MOLT-4; 15.1 µM (inactive) in the assay with NCI-H522; 23.1 µM (inactive) with NCI/ADR-RES; 17.6 µM (inactive) with SF-295; > 100 µM (inactive) in the assay on SK-MEL-5; 48.5 µM (inactive) with SN12C. Besides, the GI50 is 36.5 µM (inactive) in the assay with SNB-19; 22.4 µM (inactive) with SNB-75; 53.2 µM (inactive) with T47D; 29 µM (inactive) with TK-10; 26.3 µM (inactive) in the assay on UO-31.
In the case of `CC(C)(C)NC(=O)N1N=C(c2ccccc2)C1c1ccccc1` (configuration not stated), the GI50 in the assay on A549 was 31.5 µM (inactive); in the assay on HCT-15, 23.9 µM; in the assay with HT-29 it was 18 µM (inactive); in the assay on IGROV-1 it was 59.8 µM (inactive); in the assay on KM12, 47.6 µM (inactive); in the assay on MCF7 it was 41.7 µM (inactive). In addition, the GI50 in the assay on NCI-H522 was 19.6 µM (inactive); in the assay on NCI/ADR-RES it was 35.2 µM (inactive); with SF-295 it was 35.6 µM (inactive); with SK-MEL-5 it was 20.2 µM (inactive); with SK-OV-3 it was > 100 µM (inactive); in the assay on SN12C, 43.5 µM (inactive). Further, the GI50 in the assay on SNB-19 is 34.3 µM (inactive); with SNB-75, 87.1 µM (inactive); with T47D, 42.7 µM (inactive); in the assay with TK-10, 26 µM (inactive); with UO-31, 18.2 µM (inactive).
Consider `Cc1cccc2c1C(=O)[C@@](C)([C@]1(C)Nc3cccc(C)c3C1=O)N2`, for which the GI50 in the assay on A549 is > 100 µM (inactive); in the assay with HCT-15, more than 100 µM; in the assay with HT-29 it was > 100 µM (inactive); in the assay with IGROV-1 it was > 100 µM (inactive); in the assay with K562, > 100 µM (inactive); in the assay on KM12, > 100 µM (inactive). In addition, the GI50 is > 100 µM (inactive) with MCF7; > 100 µM (inactive) in the assay on MOLT-4; > 100 µM (inactive) in the assay with NCI-H522; > 100 µM (inactive) in the assay with NCI/ADR-RES; > 100 µM (inactive) in the assay with SF-295; 96.6 µM (inactive) with SK-MEL-5. Also, the GI50 in the assay on SK-OV-3 is > 100 µM (inactive); with SN12C, > 100 µM (inactive); in the assay on SNB-19, > 100 µM (inactive); in the assay with SNB-75, 30.4 µM (inactive); in the assay on T47D it was > 100 µM (inactive); with UO-31, > 100 µM (inactive).
For `O=C1/C(=C/c2ccc(Br)s2)NC(=S)N1CN1CCOCC1`, the GI50 in the assay with HCT-15 was 30.2 µM; in the assay with HT-29, 35.2 µM (inactive); in the assay on IGROV-1 it was 57.4 µM (inactive); with K562, 25.8 µM (inactive); in the assay on KM12, 84.3 µM (inactive); in the assay on MCF7, 25.1 µM (inactive). The GI50 in the assay with MOLT-4 is 32.7 µM (inactive); with NCI-H522 it was 64 µM (inactive); in the assay on NCI/ADR-RES it was 64.9 µM (inactive); in the assay with SF-295 it was 95.5 µM (inactive); in the assay with SK-MEL-5, 50 µM (inactive); in the assay with SN12C it was 45.4 µM (inactive). Further, the GI50 was > 100 µM (inactive) in the assay on SNB-19; 85.5 µM (inactive) in the assay with SNB-75; 49.5 µM (inactive) with T47D; 50.6 µM (inactive) in the assay with TK-10; 37.5 µM (inactive) in the assay on UO-31.
On to `O/N=C1/CCCc2nonc21`, for which the GI50 in the assay with A549 was > 100 µM (inactive); with HCT-15, more than 100 µM; in the assay on HT-29, > 100 µM (inactive); in the assay with IGROV-1, > 100 µM (inactive); in the assay with K562 it was > 100 µM (inactive); with KM12 it was > 100 µM (inactive). For the same molecule, the GI50 in the assay on MCF7, with MOLT-4, with NCI/ADR-RES, in the assay with SF-295, in the assay with SK-MEL-5 and in the assay with SK-OV-3 was > 100 µM (inactive) each time. The GI50 with SN12C, in the assay on SNB-19, with SNB-75, in the assay on T47D, in the assay on TK-10 and in the assay on UO-31 was > 100 µM (inactive) throughout.
Regarding `COc1ccccc1N1CCN(CCCNC(=O)c2cc(Cl)c(N)c(Cl)c2)CC1`, the GI50 in the assay on A549 is 61.9 µM (inactive); with HCT-15, 18.5 µM; in the assay on HT-29 it was 24.1 µM (inactive); in the assay with IGROV-1, 71.6 µM (inactive); in the assay with KM12, 26.9 µM (inactive); with MCF7, 35.2 µM (inactive). Also, the GI50 with MOLT-4 is 19.8 µM (inactive); with NCI/ADR-RES it was 36.8 µM (inactive); in the assay on SF-295, 16.3 µM (inactive); in the assay on SK-MEL-5, 18.2 µM (inactive); with SK-OV-3, 69.8 µM (inactive); in the assay on SN12C, 20 µM (inactive). Further, the GI50 in the assay on SNB-19 was 41.3 µM (inactive); with SNB-75, 59.3 µM (inactive); in the assay on T47D, 42.9 µM (inactive); in the assay with TK-10 it was 54.2 µM (inactive); with UO-31, 21.9 µM (inactive).
For `CCC(CCN)(CCN)[N+](=O)[O-]`, the GI50 in the assay on A549 is > 100 µM (inactive); in the assay on HCT-15 it was more than 100 µM; in the assay on HT-29 it was > 100 µM (inactive); in the assay on IGROV-1 it was > 100 µM (inactive); in the assay with K562, > 100 µM (inactive); with KM12, > 100 µM (inactive). The GI50 in the assay on MCF7 was > 100 µM (inactive); in the assay with MOLT-4, > 100 µM (inactive); with NCI-H522 it was 58.3 µM (inactive); with NCI/ADR-RES it was > 100 µM (inactive); with SF-295, > 100 µM (inactive); in the assay on SK-MEL-5 it was > 100 µM (inactive). The GI50 in the assay on SK-OV-3, in the assay with SN12C, in the assay on SNB-75 and in the assay on T47D was > 100 µM (inactive) each time.

(Values after ChEMBL document CHEMBL1201862, “PubChem BioAssay data set” (2004).)
